This note sets out measurements from PubChem BioAssay (NCI).

What all share (experiment): inhibition of tumour cell growth, NCI panel, 48 h
Test [1] deals with NCI/ADR-RES ovarian.
For test [2], the system named is 786-0 renal.
For test [3], the system named is RXF 393 renal.
The subject of test [4] is COLO 205 colon.
The subject of test [5] is U251 CNS.
Test [6] concerns A549 NSCLC.
Test [7] relates to NCI-H23 lung.
Test [8] concerns SF-268 CNS.
Test [9] concerns LOX IMVI melanoma.
The subject of test [10] is KM12 colon.

Molecules are shown by their SMILES.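 Method: 48-hour compound exposure of cells in 96-well plates, five concentrations, linear interpolation of endpoints. GI50 = concentration required for 50% inhibition of growth. TGI: total growth inhibition.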

As for `Cc1ccc(S(=O)(=O)N2C3C=CC(C3)[C@@H]2C(Cl)(Cl)Cl)cc1` (stereo partly specified), the TGI was 44.6 µM in test [1]; 49.5 µM in test [2]; 41.4 µM in test [3]; 38.2 µM in test [4]; 40.1 µM in [5]; above 100 µM in [6]. Also, the TGI in test [7] was above 100 µM; in test [8], 46.9 µM; in test [9], 33.2 µM; in test [10] it was 85.5 µM. The GI50 in [3] was 19.2 µM.
